From the supplement of paper PMC8253809

Legend:
[1] = tested on: HABS (astrocyte control); experiment: EC50 (inflection of fitted growth-inhibition curve) (log10 M)
Method in brief: (§1)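 A pin tool was used to add a 10-point threefold dilution series (mean top concentration 35 μM), in triplicate, to patient-derived pHGG/DIPG cell lines and astrocyte controls seeded on 384-well plates coated with 1% Geltrex. After 7 days at 37 °C and 5% CO2 (3 days for iAstro), CellTiter-Glo luminescence was log2-transformed, normalised on each plate to % activity relative to negative (solvent) and positive control wells, and pooled. EC50 and maximal response (yFin) were read from the three- or four-parameter log-logistic fit with the lowest AICc.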

[2] = tested on: SUDIPGXXI (diffuse intrinsic pontine glioma line); experiment: as above
Method in brief: as §1

[3] = tested on: HGGX6 (H3.3 G34R paediatric high-grade glioma line); experiment: as above
Method in brief: as §1

[4] = tested on: DIPGX37 (H3.3 K27M diffuse intrinsic pontine glioma line); experiment: as above
Method in brief: as §1

[5] = tested on: DIPGX9 (diffuse intrinsic pontine glioma line); experiment: as above
Method in brief: as §1

[6] = tested on: SUDIPGXVII (diffuse intrinsic pontine glioma line); experiment: as above
Method in brief: as §1

[7] = tested on: SUDIPGXIX (diffuse intrinsic pontine glioma line); experiment: as above
Method in brief: as §1

[8] = tested on: iAstro (astrocyte control); experiment: as above
Method in brief: as §1

[9] = tested on: SUDIPGVI (diffuse intrinsic pontine glioma line); experiment: as above
Method in brief: as §1

[10] = tested on: HGGX39 (paediatric high-grade glioma line); experiment: as above
Method in brief: as §1

[11] = tested on: HGGX42 (H3.3 G34R paediatric high-grade glioma line); experiment: as above
Method in brief: as §1

[12] = tested on: DIPGX7 (H3.3 K27M diffuse intrinsic pontine glioma line); experiment: as above
Method in brief: as §1

[13] = tested on: HGGX2 (paediatric high-grade glioma line); experiment: as above
Method in brief: as §1

[14] = tested on: SUDIPGIV (diffuse intrinsic pontine glioma line); experiment: as above
Method in brief: as §1

[15] = tested on: DIPGX29 (H3.3 K27M diffuse intrinsic pontine glioma line); experiment: as above
Method in brief: as §1

[16] = tested on: SUDIPGXIII (diffuse intrinsic pontine glioma line); experiment: as above
Method in brief: as §1

[17] = tested on: HABS; experiment: area under dose-response curve of % growth inhibition (log2 RLU vs DMSO / staurosporine), 1e-11 to 1e-4 M (% x log10 M); higher = more growth inhibition
Method in brief: (§2)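 A 10-point threefold dilution series, mean top concentration 35 μM, was applied in triplicate to patient-derived pHGG/DIPG lines and astrocytes on 1% Geltrex-coated 384-well plates for 7 days (3 days for iAstro) at 37 °C, 5% CO2. Per-plate % activity between solvent and positive controls was calculated from log2-transformed CellTiter-Glo luminescence. Area under the curve followed from the trapezoid rule on a log-logistic fit, or on a smoothing spline when the sigmoid fit failed.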

[18] = tested on: HGGX6; experiment: as above
Method in brief: as §2

[19] = tested on: DIPGX37; experiment: as above
Method in brief: as §2

[20] = tested on: DIPGX9; experiment: as above
Method in brief: as §2

[21] = tested on: SUDIPGXIII; experiment: as above
Method in brief: as §2

[22] = tested on: HABS; experiment: maximal growth inhibition (yFin) relative to DMSO / staurosporine; higher = more efficacious
Method in brief: as §1

[23] = tested on: SUDIPGXXI; experiment: as above
Method in brief: as §1

[24] = tested on: HGGX6; experiment: as above
Method in brief: as §1

[25] = tested on: DIPGX37; experiment: as above
Method in brief: as §1

[26] = tested on: DIPGX9; experiment: as above
Method in brief: as §1

[27] = tested on: SUDIPGXVII; experiment: as above
Method in brief: as §1

[28] = tested on: SUDIPGXIX; experiment: as above
Method in brief: as §1

[29] = tested on: iAstro; experiment: as above
Method in brief: as §1

[30] = tested on: SUDIPGVI; experiment: as above
Method in brief: as §1

[31] = tested on: HGGX39; experiment: as above
Method in brief: as §1

[32] = tested on: HGGX42; experiment: as above
Method in brief: as §1

[33] = tested on: DIPGX7; experiment: as above
Method in brief: as §1

[34] = tested on: HGGX2; experiment: as above
Method in brief: as §1

[35] = tested on: SUDIPGIV; experiment: as above
Method in brief: as §1

[36] = tested on: DIPGX29; experiment: as above
Method in brief: as §1

[37] = tested on: SUDIPGXIII; experiment: as above
Method in brief: as §1

Compound	EC50 (log10 M) [1]	EC50 (log10 M) [2]	EC50 (log10 M) [3]	EC50 (log10 M) [4]	EC50 (log10 M) [5]	EC50 (log10 M) [6]	EC50 (log10 M) [7]	EC50 (log10 M) [8]	EC50 (log10 M) [9]	EC50 (log10 M) [10]	EC50 (log10 M) [11]	EC50 (log10 M) [12]	EC50 (log10 M) [13]	EC50 (log10 M) [14]	EC50 (log10 M) [15]	EC50 (log10 M) [16]	area under dose-response curve [17]	area under dose-response curve [18]	area under dose-response curve [19]	area under dose-response curve [20]	area under dose-response curve [21]	maximal growth inhibition [22]	maximal growth inhibition [23]	maximal growth inhibition [24]	maximal growth inhibition [25]	maximal growth inhibition [26]	maximal growth inhibition [27]	maximal growth inhibition [28]	maximal growth inhibition [29]	maximal growth inhibition [30]	maximal growth inhibition [31]	maximal growth inhibition [32]	maximal growth inhibition [33]	maximal growth inhibition [34]	maximal growth inhibition [35]	maximal growth inhibition [36]	maximal growth inhibition [37]
Cc1ccc(C(=O)Nc2ccc(CN3CCN(C)CC3)c(C(F)(F)F)c2)cc1C#Cc1cnc2cccnn12 [PONATINIB]	-5.89	-7.54	-5.11	-5.38	-6.72	-4.84	-5.29	-5.12	-4.86	-5.47	-5.22	-5.61	-5.61	-4.81	-5.28	-4.88	194	155	141	252	132	103%	97.2%	97.4%	101%	94.2%	101%	99.8%	95%	97.8%	99.3%	99%	101%	99.6%	100%	104%	96%
O=C(Nc1ccccc1-c1cn2c(CN3CCNCC3)csc2n1)c1cnc2ccccc2n1 [SRT1720]	-4.93	-5.7	-5.14	-5.19	-5.43	-4.97	-5.34	-5.43	-5.36	-5.08	-5.49	-5.4	-5.41	-5.41	-5.16	-4.96	91.1	102	113	146	122	98.3%	105%	90.5%	94.6%	103%	99.2%	104%	91.6%	93.9%	95.5%	102%	102%	99.1%	104%	94.6%	94.6%
CCN(CC)CCNC(=O)c1c(C)[nH]c(/C=C2\C(=O)Nc3ccc(F)cc32)c1C [SUNITINIB]	-4.96	-5.41	-4.88	-4.77	-5.03	-4.97	-5.05	-5.05	-5.01	-4.77	-5.25	-4.99	-5.16	-4.83	-4.95	-4.94	122	95.1	103	129	144	122%	115%	107%	101%	117%	120%	129%	97.5%	108%	105%	112%	116%	108%	119%	103%	113%
CN(C)C/C=C/C(=O)Nc1ccc(C(=O)Nc2cccc(Nc3ncc(Cl)c(-c4c[nH]c5ccccc45)n3)c2)cc1 [THZ1]	-6.72	-8.32	-7.28	-7.71	-8.19	-7.78	-8.07	-5.76	-8.04	-7.15	-7.25	-8.02	-7.58	-7.91	-7.44	-7.62	284	267	302	372	308	100%	107%	81.5%	81.3%	88.7%	87.2%	84.4%	99.1%	85.3%	86.2%	110%	88.6%	97.5%	87.4%	87.4%	85%
